Patent publication US20080200460A1, “Chemical Compounds” (priority 2004, published 2008)

biological target: recombinant human CCR5 receptor (Homo sapiens, UniProt P51681); test: in vitro radioligand binding assay: inhibition of binding of iodinated MIP-1α (scintillation proximity); settings: displacement of iodinated MIP-1α from membranes of Chinese hamster ovary cells expressing recombinant human CCR5; negative log10 of IC50; average if tested more than once
Protocol: The ability of compounds to inhibit the binding of MIP-1α was assessed by an in vitro radioligand binding assay. Membranes were prepared from Chinese hamster ovary cells which expressed the recombinant human CCR5 receptor. These membranes were incubated with […] iodinated MIP-1α, scintillation proximity beads and various concentrations of the compounds of the invention in 96-well plates. The amount of iodinated MIP-1α bound to the receptor was determined by scintillation counting. Competition curves were obtained for compounds and the concentration of compound which displaced 50% of bound iodinated MIP-1α was calculated (IC50).
Results from this test for certain compounds of the invention are presented in Table V. In Table V the results are presented as Pic50 values. A Pic50 value is the negative log (to base 10) of the IC50 result, so an IC50 of 1 μM (that is 1×10^−6M) gives a Pic50 of 6. If a compound was tested more than once then the data below is an average of the probative tests results.

Chain of recombinant human CCR5 receptor (P51681 whole entry): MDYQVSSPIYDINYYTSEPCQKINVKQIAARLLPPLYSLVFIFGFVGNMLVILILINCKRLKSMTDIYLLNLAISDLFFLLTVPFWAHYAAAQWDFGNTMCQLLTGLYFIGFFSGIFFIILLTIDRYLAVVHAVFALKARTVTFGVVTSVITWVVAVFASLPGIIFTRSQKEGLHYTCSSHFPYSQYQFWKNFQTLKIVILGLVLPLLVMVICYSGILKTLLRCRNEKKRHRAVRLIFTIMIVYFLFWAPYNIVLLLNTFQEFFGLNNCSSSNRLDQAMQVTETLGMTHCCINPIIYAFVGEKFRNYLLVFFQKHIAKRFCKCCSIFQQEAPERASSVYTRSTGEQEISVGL

| Structure (SMILES) | IC50 |
| --- | --- |
| CCN(C(=O)CC1CCN(S(C)(=O)=O)CC1)C1CCN(CC[C@H](c2ccc(S(C)(=O)=O)cc2)c2cc(F)cc(F)c2)CC1 [Compound 1 Table III, N-(1-{(3R)-3-(3,5-difluorophenyl)-3-[4-(methylsulphonyl)phenyl]propyl}piperidin-4-yl)-N-ethyl-2-[1-(methylsulphonyl)piperidin-4-yl]acetamide] | 0.794 nM |
| CCN(C(=O)NCC1CCN(S(C)(=O)=O)CC1)C1CCN(CC[C@H](c2ccc(S(C)(=O)=O)cc2)c2cc(F)cc(F)c2)CC1 [Compound 1 Table IV] | 0.316 nM |
| CCN(C(=O)CC1CCOCC1)C1CCN(CC[C@H](c2ccc(S(C)(=O)=O)cc2)c2cc(F)cc(F)c2)CC1 [Compound 2 Table III, N-(1-{(3R)-3-(3,5-difluorophenyl)-3-[4-(methylsulphonyl)phenyl]propyl}piperidin-4-yl)-N-ethyl-2-(tetrahydro-2H-pyran-4-yl)acetamide] | 15.8 nM |
| CCN(C(=O)CN1CCN(S(C)(=O)=O)CC1)C1CCN(CC[C@@H](c2cc(F)cc(F)c2)C2CCN(S(C)(=O)=O)CC2)CC1 [Compound 5 Table I, N-(1-{(3R)-3-(3,5-difluorophenyl)-3-[1-(methylsulfonyl)piperidin-4-yl]propyl}piperidin-4-yl)-N-ethyl-2-[4-(methylsulfonyl)piperazin-1-yl]acetamide] | 3.16 nM |
| C=CCN(C(=O)CC1CCN(S(C)(=O)=O)CC1)C1CCN(CC[C@@H](c2cc(F)cc(F)c2)C2CCN(S(C)(=O)=O)CC2)CC1 [Compound 7 Table I, N-allyl-N-(1-{(3R)-3-(3,5-difluorophenyl)-3-[1-(methylsulfonyl)piperidin-4-yl]propyl}piperidin-4-yl)-2-[1-(methylsulfonyl)piperidin-4-yl]acetamide] | 0.316 nM |
